target: Peptidyl-prolyl cis-trans isomerase FKBP1A (Homo sapiens, UniProt P62942); assay: Binding affinity to FK506 binding protein 12 was determined
Sequence (P62942 whole entry): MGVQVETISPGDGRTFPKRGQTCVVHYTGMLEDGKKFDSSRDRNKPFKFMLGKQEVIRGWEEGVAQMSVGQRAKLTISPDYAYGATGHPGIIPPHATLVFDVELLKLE

Compared with CCCC1C(=O)CC[C@@H](C)[C@@H](CCc2cccnc2)OC(=O)[C@@H]2CCCN(C2)C(=O)C(O)CC[S+]([O-])CC[C@@H](OC)C[C@@H](C)CC(=O)N1C (stereo not given in full), CCCC1C(=O)CC[C@@H](C)[C@@H](CCc2cccnc2)OC(=O)[C@@H]2CCCN(C2)C(=O)C(=O)CSCC[C@@H](OC)C[C@@H](C)CC(=O)N1C (stereo not given in full) is lower in Kd: over 1000 nM for the first, 644 nM for the second.

Going from CCC(C)C1C(=O)CC[C@@H](C)[C@@H](CCc2cccnc2)OC(=O)[C@@H]2CCCN(C2)C(=O)C(=O)CCSCC[C@@H](OC)C[C@@H](C)CC(=O)N1C (stereo not given in full) to C=CC[C@@H]1/C=C(\C)C[C@H](C)C[C@H](OC)[C@@H](O)[C@@H](OC)C[C@@H](C)CC(=O)C(=O)N2CCCC[C@H]2C(=O)O[C@H](/C(C)=C/[C@@H]2CC[C@@H](O)[C@H](OC)C2)[C@H](C)[C@@H](O)CC1=O, the Kd rises from 90 nM to 320 nM (3.6-fold).

With C=CC[C@@H]1/C=C(\C)C[C@H](C)C[C@H](OC)[C@@H](O)[C@@H](OC)C[C@@H](C)c2ncoc2C(=O)N2CCCC[C@H]2C(=O)O[C@H](/C(C)=C/[C@@H]2CC[C@@H](O)[C@H](OC)C2)[C@H](C)C(O)CC1=O (stereo not given in full) the Kd was 344 nM.

— ChEMBL document CHEMBL1128043, “Synthesis of FK506-Cyclosporin hybrid macrocycles” (Bioorg Med Chem Lett, 1995)
